Measurements from PubChem BioAssay (NCI).
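The compound was tested at five concentrations on cells cultured in 96-well plates, with a 48-hour exposure period. At the GI50, growth is halved. TGI: total growth inhibition.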

Legend:
Experiment in all cases: NCI anticancer screen, dose series, 48 h
786-0 renal = system: 786-0 renal
A498 renal = system: A498 renal
A549 NSCLC = system: A549 NSCLC
ACHN renal = system: ACHN renal
BT-549 breast = system: BT-549 breast
CAKI-1 renal = system: CAKI-1 renal
CCRF-CEM leukemia = system: CCRF-CEM leukemia
COLO 205 colon = system: COLO 205 colon
DU-145 prostate = system: DU-145 prostate
EKVX NSCLC = system: EKVX NSCLC
HCC-2998 colon = system: HCC-2998 colon
HCT-116 colon = system: HCT-116 colon
HCT-15 colon = system: HCT-15 colon
HL-60(TB) leukemia = system: HL-60(TB) leukemia
HOP-62 NSCLC = system: HOP-62 NSCLC
HOP-92 NSCLC = system: HOP-92 NSCLC
HS 578T breast = system: HS 578T breast
HT29 colon = system: HT29 colon
IGROV1 ovarian = system: IGROV1 ovarian
K-562 leukemia = system: K-562 leukemia
KM12 colon = system: KM12 colon
LOX IMVI melanoma = system: LOX IMVI melanoma
M14 melanoma = system: M14 melanoma
MALME-3M melanoma = system: MALME-3M melanoma
MCF7 breast = system: MCF7 breast
MDA-MB-231 breast = system: MDA-MB-231 breast
MDA-MB-435 = system: MDA-MB-435
MOLT-4 leukemia = system: MOLT-4 leukemia
NCI-H226 lung = system: NCI-H226 lung
NCI-H460 lung = system: NCI-H460 lung
NCI-H522 lung = system: NCI-H522 lung
NCI/ADR-RES ovarian = system: NCI/ADR-RES ovarian
OVCAR-3 ovarian = system: OVCAR-3 ovarian
OVCAR-4 ovarian = system: OVCAR-4 ovarian
OVCAR-5 ovarian = system: OVCAR-5 ovarian
OVCAR-8 ovarian = system: OVCAR-8 ovarian
PC-3 prostate = system: PC-3 prostate
RPMI-8226 leukemia = system: RPMI-8226 leukemia
RXF 393 renal = system: RXF 393 renal
SF-268 CNS = system: SF-268 CNS
SF-295 CNS = system: SF-295 CNS
SF-539 CNS = system: SF-539 CNS
SK-MEL-2 melanoma = system: SK-MEL-2 melanoma
SK-MEL-28 melanoma = system: SK-MEL-28 melanoma
SK-MEL-5 melanoma = system: SK-MEL-5 melanoma
SK-OV-3 ovarian = system: SK-OV-3 ovarian
SN12C renal = system: SN12C renal
SNB-19 CNS = system: SNB-19 CNS
SNB-75 CNS = system: SNB-75 CNS
SR leukemia = system: SR leukemia
SW-620 colon = system: SW-620 colon
T-47D breast = system: T-47D breast
TK-10 renal = system: TK-10 renal
U251 CNS = system: U251 CNS
UACC-257 melanoma = system: UACC-257 melanoma
UACC-62 melanoma = system: UACC-62 melanoma
UO-31 renal = system: UO-31 renal

## CC[C@@H](CO)Nc1ccc2ncc(C#Cc3cncc(C(=O)Nc4ccc(CN5CCN(C)CC5)c(C(F)(F)F)c4)c3)n2n1
786-0 renal
  GI50: 282 nM
  TGI: 986 nM
A498 renal
  GI50: 1060 nM
  TGI: 1920 nM
A549 NSCLC
  GI50: 199 nM
  TGI: 768 nM
ACHN renal
  GI50: 363 nM
  TGI: 1180 nM
BT-549 breast
  GI50: 614 nM
  TGI: 1350 nM
CAKI-1 renal
  GI50: 142 nM
  TGI: 458 nM
CCRF-CEM leukemia
  GI50: 26.4 nM
  TGI: 1310 nM
COLO 205 colon
  GI50: 89.2 nM
  TGI: 196 nM
DU-145 prostate
  GI50: 144 nM
  TGI: 543 nM
EKVX NSCLC
  GI50: 142 nM
  TGI: 1050 nM
HCC-2998 colon
  GI50: 238 nM
  TGI: 858 nM
HCT-116 colon
  GI50: 66.1 nM
  TGI: 355 nM
HCT-15 colon
  GI50: 583 nM
  TGI: 1700 nM
HL-60(TB) leukemia
  GI50: 104 nM
  TGI: 462 nM
HOP-62 NSCLC
  GI50: 178 nM
  TGI: 909 nM
HOP-92 NSCLC
  GI50: 67 nM
  TGI: 261 nM
HS 578T breast
  GI50: 59.8 nM
  TGI: 451 nM
HT29 colon
  GI50: 157 nM
  TGI: 655 nM
IGROV1 ovarian
  GI50: 77 nM
  TGI: 365 nM
K-562 leukemia
  GI50: 5 nM
  TGI: 1640 nM
KM12 colon
  GI50: 9.27 nM
  TGI: 793 nM
LOX IMVI melanoma
  GI50: 63.4 nM
  TGI: 258 nM
M14 melanoma
  GI50: 118 nM
  TGI: 360 nM
MALME-3M melanoma
  GI50: 125 nM
  TGI: 544 nM
MCF7 breast
  GI50: 46.9 nM
  TGI: 409 nM
MDA-MB-231 breast
  GI50: 48.2 nM
  TGI: 500 nM
MDA-MB-435
  GI50: 104 nM
  TGI: 634 nM
MOLT-4 leukemia
  GI50: 43.8 nM
  TGI: 693 nM
NCI-H226 lung
  GI50: 79.6 nM
  TGI: 635 nM
NCI-H460 lung
  GI50: 163 nM
  TGI: 541 nM
NCI-H522 lung
  GI50: 59.2 nM
  TGI: 157 nM
NCI/ADR-RES ovarian
  GI50: 5580 nM
  TGI: 18400 nM
OVCAR-3 ovarian
  GI50: 167 nM
  TGI: 954 nM
OVCAR-4 ovarian
  GI50: 145 nM
  TGI: 982 nM
OVCAR-5 ovarian
  GI50: 236 nM
  TGI: 1310 nM
OVCAR-8 ovarian
  GI50: 169 nM
  TGI: 627 nM
PC-3 prostate
  GI50: 272 nM
  TGI: 1790 nM
RPMI-8226 leukemia
  GI50: 254 nM
  TGI: 1070 nM
RXF 393 renal
  GI50: 110 nM
  TGI: 333 nM
SF-268 CNS
  GI50: 109 nM
  TGI: 554 nM
SF-295 CNS
  GI50: 413 nM
  TGI: 1390 nM
SF-539 CNS
  GI50: 32 nM
  TGI: 172 nM
SK-MEL-2 melanoma
  GI50: 115 nM
  TGI: 339 nM
SK-MEL-28 melanoma
  GI50: 278 nM
  TGI: 1100 nM
SK-MEL-5 melanoma
  GI50: 681 nM
  TGI: 1350 nM
SK-OV-3 ovarian
  GI50: 622 nM
  TGI: 2150 nM
SN12C renal
  GI50: 45.2 nM
  TGI: 605 nM
SNB-19 CNS
  GI50: 203 nM
  TGI: 1240 nM
SNB-75 CNS
  GI50: 20.6 nM
  TGI: 108 nM
SR leukemia
  GI50: 34 nM
  TGI: 534 nM
SW-620 colon
  GI50: 81.3 nM
  TGI: 281 nM
T-47D breast
  GI50: 582 nM
  TGI: 1590 nM
TK-10 renal
  GI50: 343 nM
  TGI: 1180 nM
U251 CNS
  GI50: 243 nM
  TGI: 805 nM
UACC-257 melanoma
  GI50: 390 nM
  TGI: 1250 nM
UACC-62 melanoma
  GI50: 284 nM
  TGI: 1100 nM
UO-31 renal
  GI50: 917 nM
  TGI: 1930 nM
